This note sets out measurements from patent US20260022142A1, “MACROCYCLIC IMMUNOMODULATORS” (Bristol-Myers Squibb Company, priority 2022, published 2026).

Structures are written as SMILES. Bridge positions count the residues as written; N and C are the ends. Square brackets hold non-standard residues; d marks the D form. Peptide text beside a SMILES is read from it. * marks the point of attachment. Phe(4-COOH) = N[C@@H](Cc1ccc(C(=O)O)cc1)C(=O)O; Bip = N[C@@H](Cc1ccc(-c2ccccc2)cc1)C(=O)O; Phe(3-Me) = Cc1cccc(C[C@H](N)C(=O)O)c1; 4Pal = N[C@@H](Cc1ccncc1)C(=O)O; Cha = N[C@@H](CC1CCCCC1)C(=O)O; Carboxymethyl = O=C(O)C*; Orn = NCCC[C@H](N)C(=O)O; Pra = C#CC[C@H](N)C(=O)O; Aun = NCCCCCCCCCCC(=O)O; Dab = NCC[C@H](N)C(=O)O; Dap = NC[C@H](N)C(=O)O; AEEA = NCCOCCOCC(=O)O

T1 sequence (Q15116 25-288): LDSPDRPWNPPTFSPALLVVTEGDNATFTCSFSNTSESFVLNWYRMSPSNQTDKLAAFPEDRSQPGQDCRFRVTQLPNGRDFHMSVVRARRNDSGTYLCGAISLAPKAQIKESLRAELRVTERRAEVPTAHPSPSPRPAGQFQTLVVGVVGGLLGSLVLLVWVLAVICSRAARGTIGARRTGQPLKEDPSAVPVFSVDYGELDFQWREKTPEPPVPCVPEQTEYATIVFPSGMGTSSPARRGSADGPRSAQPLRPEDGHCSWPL

The assay addresses T1, PD-1/PD-L1 interaction (PE-labeled human PD-L1-Ig binding to Jurkat cell line over-expressing human PD-1) (Homo sapiens, UniProt Q15116).
T1 construct: expressed in transfected cells; host or cells: Jurkat
Put plainly: Jurkat-PD-1 Cell Binding High-Content Screening Assay (CBA). It counts as cell-based. The conditions noted are these: Jurkat cell line over-expressing human PD-1; PE-labeled PD-L1-Ig 20 nM final; read-out: Jurkat hPD1-PDL1 IC50. The method, boiled down:
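Jurkat-hPD-1 cells, DMEM/10% FCS; cpd 2 h 37° C; PE-PD-L1-Ig 20 nM final, 1 h; 4% PFA fix + Hoechst 33342, 3× dPBS wash; high-content imaging read-out.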
On to `CC[C@H](C)[C@@H]1NC(=O)[C@H](Cc2ccc(-c3ccccc3)cc2)NC(=O)[C@H](C(C)C)NC(=O)[C@H](Cc2cccc(C)c2)NC(=O)[C@H](CC(=O)O)NC(=O)[C@H](Cc2ccc(C(=O)O)cc2)NC(=O)[C@H](Cc2ccncc2)NC(=O)CSC[C@@H](C(=O)N[C@@H](CCCN)C(=O)NCCCCCCCCCCC(=O)O)NC(=O)[C@H]([C@@H](C)O)NC(=O)[C@H](C(C)C)NC(=O)[C@H](CC2CCCCC2)NC(=O)[C@H](CCN)NC(=O)[C@@H](CC(C)C)NC(=O)[C@H](CCCN)NC1=O` [Compound 1184], for which the IC50 turned out to be 51.5 nM. With `CC[C@H](C)[C@@H]1NC(=O)[C@H](Cc2ccc(-c3ccccc3)cc2)NC(=O)[C@H](C(C)C)NC(=O)[C@H](Cc2cccc(C)c2)NC(=O)[C@H](CC(=O)O)NC(=O)[C@H](Cc2ccc(C(=O)O)cc2)NC(=O)[C@H](Cc2ccncc2)NC(=O)CSC[C@@H](C(=O)N[C@@H](CCCCN)C(=O)NCCCCCCCCCCC(=O)O)NC(=O)[C@H]([C@@H](C)O)NC(=O)[C@H](C(C)C)NC(=O)[C@H](CC2CCCCC2)NC(=O)[C@H](CCN)NC(=O)[C@@H](CC(C)C)NC(=O)[C@H](CCCN)NC1=O` [Compound 1185] the figure was 44.2 nM; with `CC[C@H](C)[C@@H]1NC(=O)[C@H](Cc2ccc(-c3ccccc3)cc2)NC(=O)[C@H](C(C)C)NC(=O)[C@H](Cc2cccc(C)c2)NC(=O)[C@H](CC(=O)O)NC(=O)[C@H](Cc2ccc(C(=O)O)cc2)NC(=O)[C@H](Cc2ccncc2)NC(=O)CSC[C@@H](C(=O)N[C@@H](CCCNC(=N)N)C(=O)NCCCCCCCCCCC(=O)O)NC(=O)[C@H]([C@@H](C)O)NC(=O)[C@H](C(C)C)NC(=O)[C@H](CC2CCCCC2)NC(=O)[C@H](CCN)NC(=O)[C@@H](CC(C)C)NC(=O)[C@H](CCCN)NC1=O` [Compound 1186], 103 nM. With `CC[C@H](C)[C@@H]1NC(=O)[C@H](Cc2ccc(-c3ccccc3)cc2)NC(=O)[C@H](C(C)C)NC(=O)[C@H](Cc2cccc(C)c2)NC(=O)[C@H](CC(=O)O)NC(=O)[C@H](Cc2ccc(C(=O)O)cc2)NC(=O)[C@H](Cc2ccncc2)NC(=O)CSC[C@@H](C(=O)N[C@@H](Cc2cnc[nH]2)C(=O)NCCCCCCCCCCC(=O)O)NC(=O)[C@H]([C@@H](C)O)NC(=O)[C@H](C(C)C)NC(=O)[C@H](CC2CCCCC2)NC(=O)[C@H](CCN)NC(=O)[C@@H](CC(C)C)NC(=O)[C@H](CCCN)NC1=O` [Compound 1187] the figure was 62.8 nM; with `CC[C@H](C)[C@@H]1NC(=O)[C@H](Cc2ccc(-c3ccccc3)cc2)NC(=O)[C@H](C(C)C)NC(=O)[C@H](Cc2cccc(C)c2)NC(=O)[C@H](CC(=O)O)NC(=O)[C@H](Cc2ccc(C(=O)O)cc2)NC(=O)[C@H](Cc2ccncc2)NC(=O)CSC[C@@H](C(=O)NCCOCCOCC(=O)N[C@@H](CN)C(=O)NCCCCCCCCCCC(=O)O)NC(=O)[C@H]([C@@H](C)O)NC(=O)[C@H](C(C)C)NC(=O)[C@H](CC2CCCCC2)NC(=O)[C@H](CCN)NC(=O)[C@@H](CC(C)C)NC(=O)[C@H](CCCN)NC1=O` [Compound 1188] ({CH2CO}-[4Pal][Phe(4-COOH)]D[Phe(3-Me)]V[Bip]I[Orn][dL][Dab][Cha]VTC[AEEA][Dap][Aun]-OH; thioether N-14), 148 nM; with `CC[C@H](C)[C@@H]1NC(=O)[C@H](Cc2ccc(-c3ccccc3)cc2)NC(=O)[C@H](C(C)C)NC(=O)[C@H](Cc2cccc(C)c2)NC(=O)[C@H](CC(=O)O)NC(=O)[C@H](Cc2ccc(C(=O)O)cc2)NC(=O)[C@H](Cc2ccncc2)NC(=O)CSC[C@@H](C(=O)NCCOCCOCC(=O)N[C@@H](CCN)C(=O)NCCCCCCCCCCC(=O)O)NC(=O)[C@H]([C@@H](C)O)NC(=O)[C@H](C(C)C)NC(=O)[C@H](CC2CCCCC2)NC(=O)[C@H](CCN)NC(=O)[C@@H](CC(C)C)NC(=O)[C@H](CCCN)NC1=O` [Compound 1189] ({CH2CO}-[4Pal][Phe(4-COOH)]D[Phe(3-Me)]V[Bip]I[Orn][dL][Dab][Cha]VTC[AEEA][Dab][Aun]-OH; thioether N-14), 23.6 nM. Under `CC[C@H](C)[C@@H]1NC(=O)[C@H](Cc2ccc(-c3ccccc3)cc2)NC(=O)[C@H](C(C)C)NC(=O)[C@H](Cc2cccc(C)c2)NC(=O)[C@H](CC(=O)O)NC(=O)[C@H](Cc2ccc(C(=O)O)cc2)NC(=O)[C@H](Cc2ccncc2)NC(=O)CSC[C@@H](C(=O)NCCOCCOCC(=O)N[C@@H](CCCN)C(=O)NCCCCCCCCCCC(=O)O)NC(=O)[C@H]([C@@H](C)O)NC(=O)[C@H](C(C)C)NC(=O)[C@H](CC2CCCCC2)NC(=O)[C@H](CCN)NC(=O)[C@@H](CC(C)C)NC(=O)[C@H](CCCN)NC1=O` [Compound 1190] ({CH2CO}-[4Pal][Phe(4-COOH)]D[Phe(3-Me)]V[Bip]I[Orn][dL][Dab][Cha]VTC[AEEA][Orn][Aun]-OH; thioether N-14) stands 24.8 nM; under `CC[C@H](C)[C@@H]1NC(=O)[C@H](Cc2ccc(-c3ccccc3)cc2)NC(=O)[C@H](C(C)C)NC(=O)[C@H](Cc2cccc(C)c2)NC(=O)[C@H](CC(=O)O)NC(=O)[C@H](Cc2ccc(C(=O)O)cc2)NC(=O)[C@H](Cc2ccncc2)NC(=O)CSC[C@@H](C(=O)NCCOCCOCC(=O)N[C@@H](CCCCN)C(=O)NCCCCCCCCCCC(=O)O)NC(=O)[C@H]([C@@H](C)O)NC(=O)[C@H](C(C)C)NC(=O)[C@H](CC2CCCCC2)NC(=O)[C@H](CCN)NC(=O)[C@@H](CC(C)C)NC(=O)[C@H](CCCN)NC1=O` [Compound 1191] ({CH2CO}-[4Pal][Phe(4-COOH)]D[Phe(3-Me)]V[Bip]I[Orn][dL][Dab][Cha]VTC[AEEA]K[Aun]-OH; thioether N-14), 19.7 nM; under `CC[C@H](C)[C@@H]1NC(=O)[C@H](Cc2ccc(-c3ccccc3)cc2)NC(=O)[C@H](C(C)C)NC(=O)[C@H](Cc2cccc(C)c2)NC(=O)[C@H](CC(=O)O)NC(=O)[C@H](Cc2ccc(C(=O)O)cc2)NC(=O)[C@H](Cc2ccncc2)NC(=O)CSC[C@@H](C(=O)NCCOCCOCC(=O)N[C@@H](CCCNC(=N)N)C(=O)NCCCCCCCCCCC(=O)O)NC(=O)[C@H]([C@@H](C)O)NC(=O)[C@H](C(C)C)NC(=O)[C@H](CC2CCCCC2)NC(=O)[C@H](CCN)NC(=O)[C@@H](CC(C)C)NC(=O)[C@H](CCCN)NC1=O` [Compound 1192] ({CH2CO}-[4Pal][Phe(4-COOH)]D[Phe(3-Me)]V[Bip]I[Orn][dL][Dab][Cha]VTC[AEEA]R[Aun]-OH; thioether N-14), 45.5 nM. As to `C#CC[C@H](NC(=O)COCCOCCNC(=O)[C@H](CCN)NC(=O)[C@@H]1CSCC(=O)N[C@@H](Cc2ccncc2)C(=O)N[C@@H](Cc2ccc(OCC(=O)O)cc2)C(=O)N[C@@H](CC(=O)O)C(=O)N[C@@H](Cc2c[nH]c3ccccc23)C(=O)N[C@@H](C(C)C)C(=O)N[C@@H](Cc2ccc(-c3ccccc3)cc2)C(=O)N[C@@H]([C@@H](C)CC)C(=O)N[C@@H](CCCN)C(=O)N[C@H](CC(C)C)C(=O)N[C@@H](CCN)C(=O)N[C@@H](CC(C)C)C(=O)N[C@@H](C(C)C)C(=O)N[C@@H]([C@@H](C)O)C(=O)N1)C(=O)N[C@@H](CN)C(=O)NCCCCCCCCCCC(=O)O` [Compound 1193] ({CH2CO}-[4Pal]Y(Carboxymethyl)DWV[Bip]I[Orn][dL][Dab]LVTC[Dab][AEEA][Pra][Dap][Aun]-OH; thioether N-14), the IC50 worked out at 10.3 nM. With `C#CC[C@H](NC(=O)COCCOCCNC(=O)[C@H](CCN)NC(=O)[C@@H]1CSCC(=O)N[C@@H](Cc2ccncc2)C(=O)N[C@@H](Cc2ccc(OCC(=O)O)cc2)C(=O)N[C@@H](CC(=O)O)C(=O)N[C@@H](Cc2c[nH]c3ccccc23)C(=O)N[C@@H](C(C)C)C(=O)N[C@@H](Cc2ccc(-c3ccccc3)cc2)C(=O)N[C@@H]([C@@H](C)CC)C(=O)N[C@@H](CCCN)C(=O)N[C@H](CC(C)C)C(=O)N[C@@H](CCN)C(=O)N[C@@H](CC(C)C)C(=O)N[C@@H](C(C)C)C(=O)N[C@@H]([C@@H](C)O)C(=O)N1)C(=O)N[C@@H](CCN)C(=O)NCCCCCCCCCCC(=O)O` [Compound 1194] ({CH2CO}-[4Pal]Y(Carboxymethyl)DWV[Bip]I[Orn][dL][Dab]LVTC[Dab][AEEA][Pra][Dab][Aun]-OH; thioether N-14) the figure was 14.8 nM; with `C#CC[C@H](NC(=O)COCCOCCNC(=O)[C@H](CCN)NC(=O)[C@@H]1CSCC(=O)N[C@@H](Cc2ccncc2)C(=O)N[C@@H](Cc2ccc(OCC(=O)O)cc2)C(=O)N[C@@H](CC(=O)O)C(=O)N[C@@H](Cc2c[nH]c3ccccc23)C(=O)N[C@@H](C(C)C)C(=O)N[C@@H](Cc2ccc(-c3ccccc3)cc2)C(=O)N[C@@H]([C@@H](C)CC)C(=O)N[C@@H](CCCN)C(=O)N[C@H](CC(C)C)C(=O)N[C@@H](CCN)C(=O)N[C@@H](CC(C)C)C(=O)N[C@@H](C(C)C)C(=O)N[C@@H]([C@@H](C)O)C(=O)N1)C(=O)N[C@@H](CCCN)C(=O)NCCCCCCCCCCC(=O)O` [Compound 1195] ({CH2CO}-[4Pal]Y(Carboxymethyl)DWV[Bip]I[Orn][dL][Dab]LVTC[Dab][AEEA][Pra][Orn][Aun]-OH; thioether N-14), 13.7 nM; with `C#CC[C@H](NC(=O)COCCOCCNC(=O)[C@H](CCN)NC(=O)[C@@H]1CSCC(=O)N[C@@H](Cc2ccncc2)C(=O)N[C@@H](Cc2ccc(OCC(=O)O)cc2)C(=O)N[C@@H](CC(=O)O)C(=O)N[C@@H](Cc2c[nH]c3ccccc23)C(=O)N[C@@H](C(C)C)C(=O)N[C@@H](Cc2ccc(-c3ccccc3)cc2)C(=O)N[C@@H]([C@@H](C)CC)C(=O)N[C@@H](CCCN)C(=O)N[C@H](CC(C)C)C(=O)N[C@@H](CCN)C(=O)N[C@@H](CC(C)C)C(=O)N[C@@H](C(C)C)C(=O)N[C@@H]([C@@H](C)O)C(=O)N1)C(=O)N[C@@H](CCCCN)C(=O)NCCCCCCCCCCC(=O)O` [Compound 1196] ({CH2CO}-[4Pal]Y(Carboxymethyl)DWV[Bip]I[Orn][dL][Dab]LVTC[Dab][AEEA][Pra]K[Aun]-OH; thioether N-14), 9.6 nM.

A word on the IC50: it is the concentration that gives 50% inhibition.
